Laboratory results from US20150080551A1, “LYSINE OLIGOMER DERIVATIVE AND CARTILAGE TISSUE MARKER MADE THEREOF” (NATIONAL UNIVERSITY CORPORATION OKAYAMA UNIVERSITY, priority 2012, published 2015).

Experiments:
[1] = tested on: cartilage tissue (articular cartilage, distal end of a femur); experiment: Immersion of a distal end of a femur of a normal mouse in a cartilage tissue visualization reagent solution, ex vivo fluorescence microscopy; details: room temperature, 1 hour, GFP filter; for staining of cartilage (fluorescence signal, FIG. 1): 0.1 mM solution in saline containing 25% ethanol; for staining of cartilage (fluorescence signal, FIG. 2): 0.1 mM solution in saline
Method: Two normal C57B6/J strain mouse (8 week old, female) were prepared. The animals were euthanized by ether deep anesthesia and a distal end of a femur was excised. The sample was immersed in 100 μL of a 0.1 mM lysine oligomer derivative solution at room temperature for 1 hour. After 1 hour, the sample was washed twice with buffered saline. This was embedded in 4% CMC compound, frozen in hexane/liquid nitrogen, and cut into thin slices with a thickness of 7 μm using a tungsten carbide blade TC-65 (Leica) for a hard tissue slice and Cryofilm (Leica) in a cryostat without decalcification. The slice was thawed at room temperature for 10 sec, immersed in 100% ethanol for about 30 sec, stored in 4% paraformaldehyde (PFA) for a while, washed with tap water, and then subjected to fluorescence microscopy. An optical filer was a GFP filter. A lysine peptide was labeled with a fluorescence agent NBD, so that its signal was detected.
Here, a solvent of the solution of a lysine oligomer derivative was saline containing 25% ethanol. FIG. 1 is an enlarged image of an articular cartilage area in a sagittal plane of a knee joint in a distal end of a femur. The broken line indicates a tide-mark which is a boundary plane between a cartilage and a calcified cartilage layer.
Here, a solvent of the solution of a lysine oligomer derivative was saline. FIG. 2 is an enlarged image of an articular cartilage area in a sagittal plane of a knee joint in a distal end of a femur. […] For any of compounds 26 to 29, staining of a cartilage tissue was observed. However, staining of compound 26 containing only one lysine unit was slight. […] The white (green in a color photo) regions in the cartilage layer correspond to a part stained by a compound. Some of the circular regions (blue in a color photo) correspond to nuclear stain parts by Hoechst, which were also observed in the calcified layer.

N=C(N)NCCNc1c(I)cc(C(=O)NCCCC[C@H](NC(=O)c2cc(I)c(NCCNC(=N)N)c(I)c2)C(=O)NCCCC[C@H](NC(=O)c2cc(I)c(NCCNC(=N)N)c(I)c2)C(=O)NCCCC[C@H](NC(=O)c2cc(I)c(NCCNC(=N)N)c(I)c2)C(=O)NCCNc2ccc([N+](=O)[O-])c3nonc23)cc1I [Compound 42]
staining of cartilage (fluorescence signal, FIG. 1) [1]: Staining was observed in the cartilage tissue | melting point: 189.4 to 191.5 °C

NCCCC[C@H](N)C(=O)NCCCC[C@H](N)C(=O)NCCCC[C@H](N)C(=O)NCCCC[C@H](N)C(=O)NCCNc1ccc([N+](=O)[O-])c2nonc12 [Compound 28]
staining of cartilage (fluorescence signal, FIG. 2) [1]: further strongly stained

NCCCC[C@H](N)C(=O)NCCNc1ccc([N+](=O)[O-])c2nonc12 [Compound 26]
staining of cartilage (fluorescence signal, FIG. 2) [1]: slight | melting point: 151.4 to 153.9 °C

NCCNc1c(I)cc(C(=O)NCCCC[C@H](NC(=O)c2cc(I)c(NCCN)c(I)c2)C(=O)NCCCC[C@H](NC(=O)c2cc(I)c(NCCN)c(I)c2)C(=O)NCCCC[C@H](NC(=O)c2cc(I)c(NCCN)c(I)c2)C(=O)NCCNc2ccc([N+](=O)[O-])c3nonc23)cc1I [Compound 43]
staining of cartilage (fluorescence signal, FIG. 1) [1]: staining was confined to the surface tissue | melting point: 192.9 to 195.7 °C

NCCCC[C@H](N)C(=O)NCCCC[C@H](N)C(=O)NCCCC[C@H](N)C(=O)NCCCC[C@H](N)C(=O)NCCCC[C@H](N)C(=O)NCCNc1ccc([N+](=O)[O-])c2nonc12 [Compound 29]
staining of cartilage (fluorescence signal, FIG. 2) [1]: further strongly stained

NCCCC[C@H](N)C(=O)NCCCC[C@H](N)C(=O)NCCCC[C@H](N)C(=O)NCCNc1ccc([N+](=O)[O-])c2nonc12 [Compound 27]
staining of cartilage (fluorescence signal, FIG. 1) [1]: Staining was observed in the cartilage tissue | staining of cartilage (fluorescence signal, FIG. 2) [1]: adequately stained | melting point: 183.3 to 184.7 °C
